Experimental findings from the supplement of paper PMC12137928 are described below.

Assay [1] concerns HCT116. Particulars: 72 h. The method in brief:
(§1)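 HCT116 cells went into 1536-well plates at 250 per well. CellTiter-Glo luminescence was expressed relative to vehicle (0%) and positive control (-100%) and then pattern-corrected. Both IC50 and maximal efficacy were taken from four-parameter Hill fits.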

Assay [2] concerns HCT116. The assay can be described thus: efficacy (maximum % inhibition of viability vs DMSO); higher = more cytotoxic. The following applies: 72 h. A digest of the protocol: as §1

Molecules are shown by their SMILES. Structures can show the parent of a compound that is named as a salt.

With `COC(=O)C1=C(C)NC(C)=C(C(=O)OCC(C)C)C1c1ccccc1[N+](=O)[O-]` (stereo not drawn) [Nisoldipine], the IC50 cell viability with HCT116 [1] (ICRF193 0 nM) and in the assay with HCT116 [1] (ICRF193 200 nM) was 18.3 µM each time. In addition, the values for the efficacy in the assay on HCT116 [2] (ICRF193 0 nM) and in the assay on HCT116 [2] (ICRF193 200 nM) were 55.8% and 77.8%, respectively.
Consider `CCCCCCCCCCCCC[N+](C)(C)Cc1ccccc1` [BENZALKONIUM CHLORIDE], for which the IC50 cell viability was 20.6 µM with HCT116 [1] (ICRF193 0 nM) and 23.1 µM in the assay on HCT116 [1] (ICRF193 200 nM). The efficacy in the assay on HCT116 [2] (ICRF193 0 nM) stood at 133%; with HCT116 [2] (ICRF193 200 nM), 124%.
On the same counts, the results for `C=C1/C(=C\C=C2/CCC[C@]3(C)[C@@H]([C@H](C)/C=C/[C@H](C)C(C)C)CC[C@@H]23)C[C@@H](O)C[C@@H]1O` [Doxercalciferol] are 29.1 µM, 29.1 µM, 101% and 102%.
In the case of `CN(C)[C@@H](CCOc1cccc2ccccc12)c1ccccc1` [Dapoxetine], the IC50 cell viability was 29.1 µM in the assay on HCT116 [1] (ICRF193 0 nM) and 23.1 µM in the assay with HCT116 [1] (ICRF193 200 nM). Moreover, the efficacy in the assay with HCT116 [2] (ICRF193 0 nM) came to 71.4%; in the assay with HCT116 [2] (ICRF193 200 nM), 70.9%.
`C#C[C@]1(OC(C)=O)CC[C@H]2[C@@H]3CCC4=C[C@@H](OC(C)=O)CC[C@@H]4[C@H]3CC[C@@]21C` [Ethynodiol diacetate]: the values for the IC50 cell viability with HCT116 [1] (ICRF193 0 nM) and in the assay with HCT116 [1] (ICRF193 200 nM) were greater than 45.8 µM and 23.1 µM, respectively. In addition, the efficacy in the assay with HCT116 [2] (ICRF193 200 nM) stood at 47.1%.
In the case of `CC(C)(C)c1cc(C(C)(C)C)c(NC(=O)c2c[nH]c3ccccc3c2=O)cc1O` [Ivacaftor], the IC50 cell viability in the assay with HCT116 [1] (ICRF193 0 nM) and in the assay on HCT116 [1] (ICRF193 200 nM) was 18.3 µM in each case. Further, the values for the efficacy in the assay on HCT116 [2] (ICRF193 0 nM) and with HCT116 [2] (ICRF193 200 nM) were 96.4% and 98.6%, respectively.
Take `COc1ccc2c(c1)OC(C)(C)C(c1ccccc1)C2c1ccc(OCCN2CCCC2)cc1` (stereo not drawn) [Ormeloxifene]: the IC50 cell viability in the assay on HCT116 [1] (ICRF193 0 nM) amounted to 20.6 µM; with HCT116 [1] (ICRF193 200 nM), 18.3 µM. For the same molecule, the efficacy stood at 91% with HCT116 [2] (ICRF193 0 nM) and 81.5% with HCT116 [2] (ICRF193 200 nM).
In the same order, the values of `CC(=O)[C@H]1CC[C@H]2[C@@H]3CCC4=CC(=O)CC[C@]4(C)[C@H]3CC[C@]12C` [Progesterone] are 29.1 µM, 18.3 µM, 43.3% and 51.2%.
As to `O[C@@H](CNC[C@H](O)[C@H]1CCc2cc(F)ccc2O1)[C@@H]1CCc2cc(F)ccc2O1` (racemic) [rac Nebivolol hydrochloride], the IC50 cell viability in the assay on HCT116 [1] (ICRF193 0 nM) came to 29.1 µM; in the assay on HCT116 [1] (ICRF193 200 nM) it was 20.6 µM. Moreover, the values for the efficacy in the assay with HCT116 [2] (ICRF193 0 nM) and in the assay with HCT116 [2] (ICRF193 200 nM) were 121% and 98.2%, respectively.
Turning to `COC(=O)c1ccc2c(c1)NC(=O)/C2=C(\Nc1ccc(N(C)C(=O)CN2CCN(C)CC2)cc1)c1ccccc1` [Nintedanib], the IC50 cell viability with HCT116 [1] (ICRF193 0 nM) is greater than 45.8 µM; with HCT116 [1] (ICRF193 200 nM), 10.3 µM. The efficacy in the assay on HCT116 [2] (ICRF193 200 nM) was 53.6%.
`O=C1[C@@H]2[C@H]3CC[C@H](C3)[C@@H]2C(=O)N1C[C@@H]1CCCC[C@H]1CN1CCN(c2nsc3ccccc23)CC1` [Lurasidone (Hydrochloride)]: the IC50 cell viability in the assay on HCT116 [1] (ICRF193 0 nM) was greater than 45.8 µM; in the assay with HCT116 [1] (ICRF193 200 nM), 29.1 µM. Besides, the efficacy with HCT116 [2] (ICRF193 200 nM) is 46.3%.
As for `CCC(=O)c1ccc2c(c1)N(CCCN(C)C)c1ccccc1S2` [Propionylpromazine hydrochloride], the IC50 cell viability with HCT116 [1] (ICRF193 0 nM) was greater than 45.8 µM; with HCT116 [1] (ICRF193 200 nM), 23.1 µM. In the assay with HCT116 [2] (ICRF193 200 nM), this molecule returned an efficacy of 60.1%.
`CCCCCCNC(=O)n1cc(F)c(=O)[nH]c1=O` [Carmofur]: the IC50 cell viability worked out at 10.3 µM with HCT116 [1] (ICRF193 0 nM) and 8.2 µM in the assay on HCT116 [1] (ICRF193 200 nM). Moreover, the efficacy in the assay with HCT116 [2] (ICRF193 0 nM) was found to be 87.1%; in the assay with HCT116 [2] (ICRF193 200 nM) it was 92%.
Take `C=C1/C(=C\C=C2/CCC[C@]3(C)[C@@H]([C@H](C)CCCC(O)(C(F)(F)F)C(F)(F)F)CC[C@@H]23)C[C@@H](O)C[C@@H]1O` [Falecalcitriol]: the values for the IC50 cell viability in the assay on HCT116 [1] (ICRF193 0 nM) and in the assay on HCT116 [1] (ICRF193 200 nM) were 29.1 µM and 23.1 µM, respectively. Besides, the efficacy in the assay with HCT116 [2] (ICRF193 0 nM) is 68.9%; with HCT116 [2] (ICRF193 200 nM) it was 96.5%.
For the molecule `Nc1nc(Cl)nc2c1ncn2[C@@H]1O[C@H](CO)[C@@H](O)[C@@H]1F` [Clofarabine], the IC50 cell viability with HCT116 [1] (ICRF193 0 nM) was determined as 0.146 µM; in the assay on HCT116 [1] (ICRF193 200 nM) it was 0.231 µM. Besides, the efficacy in the assay on HCT116 [2] (ICRF193 0 nM) came to 45.9%; in the assay on HCT116 [2] (ICRF193 200 nM), 65.2%.
On the same counts, the results for `Cc1ccc([N+](=O)[O-])[c]2c1[O][Hg]2` [Nitromersol] are 3.26 µM, 5.8 µM, 88.9% and 91.5%.
On the same counts, the results for `O=C1CSC2(CCN(CCCN3c4ccccc4Sc4ccc(Cl)cc43)CC2)N1` [Spiclomazine hydrochloride] are 20.6 µM, 23.1 µM, 81.3% and 82.5%.
For `CCCCCCCCCC(=O)OCCN1CCN(CCCN2c3ccccc3Sc3ccc(C(F)(F)F)cc32)CC1` [Fluphenazine decanoate dihydrochloride], the IC50 cell viability with HCT116 [1] (ICRF193 0 nM) and in the assay with HCT116 [1] (ICRF193 200 nM) was 20.6 µM throughout. The figures for the efficacy in the assay on HCT116 [2] (ICRF193 0 nM) and with HCT116 [2] (ICRF193 200 nM) were 81% and 99.6%, respectively.
